Here are results for 28 molecules from US9637492B2, “Benzothiazole kinase inhibitors and methods of use” (Intellikine LLC, priority 2008, dated 2017).

One may read the IC50 as the concentration that gives 50% inhibition. Higher therefore signals weaker potency in that assay.

In series [1] the target is T1, PI3K alpha (Homo sapiens, UniProt P42336).
T1 construct: purchased Upstate
Description: PI3K alpha inhibition assay. It is filed as biochemical. Conditions: binned.
Description: (§1) For TLC analysis, reactions are then terminated by the addition of 105 μl 1N HCl followed by 160 μl CHC13:MeOH (1:1). The biphasic mixture is vortexed, briefly centrifuged, and the organic phase is transferred to a new tube using a gel loading pipette tip precoated with CHCl3. […] The TLC plates are then dried, exposed to a phosphorimager screen (Storm, Amersham), and quantitated.
(§2) Anr exemplary system is PI 3-Kinase (human) HTRF™ Assay from Upstate. […] Briefly, the assay is a time resolved FRET assay that indirectly measures PIP3 product formed by the activity of a PI3-K. The kinase reaction is performed in a microtitre plate (e.g., a 384 well microtitre plate). The total reaction volume is approximately 20 ul per well. In the first step, each well receives 2 ul of test compound in 20% dimethylsulphoxide resulting in a 2% DMSO final concentration. Next, approximately 14.5 ul of a kinase/PIP2 mixture (diluted in 1× reaction buffer) is added per well for a final concentration of 0.25-0.3 ug/ml kinase and 10 uM PIP2. The plate is sealed and incubated for 15 minutes at room temperature. To start the reaction, 3.5 ul of ATP (diluted in 1× reaction buffer) is added per well for a final concentration of 10 uM ATP. The plate is sealed and incubated for 1 hour at room temperature. The reaction is stopped by adding 5 ul of Stop Solution per well and then 5 ul of Detection Mix is added per well. The plate is sealed, incubated for 1 hour at room temperature, and then read on an appropriate plate reader. Data is analyzed and IC50s are generated using GraphPad Prism 5.

Series [2] concerns the target T2, PI3K beta (Homo sapiens, UniProt P42338).
T2 construct: purchased Upstate
In words: PI3K beta inhibition assay. It is filed as biochemical. Conditions: binned.
Description: as §1, §2

The target in series [3] is T3, mTORC (Homo sapiens, UniProt P42345).
T3 construct: purchased Invitrogen
T3 sequence (P42345 1360-2549 limits assumed): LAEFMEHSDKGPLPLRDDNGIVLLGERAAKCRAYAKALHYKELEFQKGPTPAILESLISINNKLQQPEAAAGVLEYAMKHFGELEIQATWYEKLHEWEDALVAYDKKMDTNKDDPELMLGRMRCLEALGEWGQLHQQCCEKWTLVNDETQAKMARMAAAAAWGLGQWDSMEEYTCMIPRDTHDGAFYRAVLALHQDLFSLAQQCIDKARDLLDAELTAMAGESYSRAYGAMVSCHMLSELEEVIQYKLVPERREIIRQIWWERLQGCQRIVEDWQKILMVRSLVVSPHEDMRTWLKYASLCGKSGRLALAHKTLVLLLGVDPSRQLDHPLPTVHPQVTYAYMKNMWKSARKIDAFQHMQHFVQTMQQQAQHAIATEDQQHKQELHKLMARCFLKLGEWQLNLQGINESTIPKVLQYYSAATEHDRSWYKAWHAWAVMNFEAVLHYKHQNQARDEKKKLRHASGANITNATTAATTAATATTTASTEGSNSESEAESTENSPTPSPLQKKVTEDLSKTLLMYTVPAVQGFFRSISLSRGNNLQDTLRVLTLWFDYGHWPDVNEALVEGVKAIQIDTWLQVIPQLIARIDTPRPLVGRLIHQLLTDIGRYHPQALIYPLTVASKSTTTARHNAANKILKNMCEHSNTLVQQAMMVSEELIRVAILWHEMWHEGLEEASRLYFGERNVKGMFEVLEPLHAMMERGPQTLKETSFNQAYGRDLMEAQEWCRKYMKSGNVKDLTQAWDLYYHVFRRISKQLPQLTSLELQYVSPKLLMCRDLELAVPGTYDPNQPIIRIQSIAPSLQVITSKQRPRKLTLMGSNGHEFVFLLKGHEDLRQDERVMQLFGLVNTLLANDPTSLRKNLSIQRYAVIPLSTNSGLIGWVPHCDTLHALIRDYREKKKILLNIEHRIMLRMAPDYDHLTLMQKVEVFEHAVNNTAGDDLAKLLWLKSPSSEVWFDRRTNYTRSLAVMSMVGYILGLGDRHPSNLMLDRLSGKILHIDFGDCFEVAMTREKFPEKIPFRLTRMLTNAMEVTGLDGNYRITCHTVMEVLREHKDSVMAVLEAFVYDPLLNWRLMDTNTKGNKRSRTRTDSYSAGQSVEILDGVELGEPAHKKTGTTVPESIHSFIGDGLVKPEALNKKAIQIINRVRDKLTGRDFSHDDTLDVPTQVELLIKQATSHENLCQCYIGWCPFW
Description: mTOR inhibition assay (Table 4, mTORC). It counts as biochemical. Conditions: binned. The protocol: The compounds described herein can be tested against recombinant mTOR (Invitrogen) in an assay containing 50 mM HEPES, pH 7.5, 1 mM EGTA, 10 mM MgCl2, 2.5 mM, 0.01% Tween, 10 μM ATP (2.5 μCi of […]), and 3 μg/mL BSA. Rat recombinant PHAS-1/4EBP1 (Calbiochem; 2 mg/mL) is used as a substrate. Reactions are terminated by spotting onto nitrocellulose, which is washed with 1M NaCl/1% phosphoric acid (approximately 6 times, 5-10 minutes each). Sheets are dried and the transferred radioactivity quantitated by phosphorimaging.
Other kits or systems for assaying mTOR activity are commercially avaiable. For instance, one can use Invitrogen's LanthaScreen™ Kinase assay to test the inhibitors of mTOR disclosed herein. This assay is a time resolved FRET platform that measures the phosphorylation of GFP labeled 4EBP1 by mTOR kinase. The kinase reaction is performed in a white 384 well microtitre plate. The total reaction volume is 20 ul per well and the reaction buffer composition is 50 mM HEPES pH7.5, 0.01% Polysorbate 20, 1 mM EGTA, 10 mM MnC12, and 2 mM DTT. In the first step, each well receives 2 ul of test compound in 20% dimethylsulphoxide resulting in a 2% DMSO final concentration. Next, 8 ul of mTOR diluted in reaction buffer is added per well for a 60 ng/ml final concentration. To start the reaction, 10 ul of an ATP/GFP-4EBP1 mixture (diluted in reaction buffer) is added per well for a final concentration of 10 uM ATP and 0.5 uM GFP-4EBP1. The plate is sealed and incubated for 1 hour at room temperature. The reaction is stopped by adding 10 ul per well of a Tb-anti-pT46 4EBP1 antibody/EDTA mixture (diluted in TR-FRET buffer) for a final concentration of 1.3 nM antibody and 6.7 mM EDTA. The plate is sealed, incubated for 1 hour at room temperature, and then read on a plate reader set up for LanthaScreen™ TR-FRET. Data is analyzed and IC50s are generated using GraphPad Prism 5.

Series [4] addresses T4, PI3K delta (Homo sapiens, UniProt O00329).
T4 construct: purchased Upstate
Description: PI3K delta inhibition assay. It is filed as biochemical. The note with it: binned.
Description: as §1, §2

The target of series [5] is T5, PI3K gamma (Homo sapiens, UniProt P48736).
T5 construct: purchased Sigma
In words: PI3K gamma inhibition assay. It is filed as biochemical. Conditions: binned. As to the method: For TLC analysis, reactions are then terminated by the addition of 105 μl 1N HCl followed by 160 μl CHC13:MeOH (1:1). The biphasic mixture is vortexed, briefly centrifuged, and the organic phase is transferred to a new tube using a gel loading pipette tip precoated with CHCl3. This extract is spotted on TLC plates and developed for 3-4 hours in a 65:35 solution of n-propanol:1M acetic acid. The TLC plates are then dried, exposed to a phosphorimager screen (Storm, Amersham), and quantitated. For each compound, kinase activity is measured at 10-12 inhibitor concentrations representing two-fold dilutions from the highest concentration tested (typically, 200 μM).
Other commercial kits or systems for assaying PI3-K activities are available. The commercially available kits or systems can be used to screen for inhibitors and/or agonists of PI3-Ks including but not limited to PI 3-Kinase α, β, δ, and γ. Anr exemplary system is PI 3-Kinase (human) HTRF™ Assay from Upstate. […] Briefly, the assay is a time resolved FRET assay that indirectly measures PIP3 product formed by the activity of a PI3-K. The kinase reaction is performed in a microtitre plate (e.g., a 384 well microtitre plate). […] The plate is sealed, incubated for 1 hour at room temperature, and then read on an appropriate plate reader. Data is analyzed and IC50s are generated using GraphPad Prism 5.

Series [6] deals with PC3. In words: Tumor cell line proliferation assay (Alamar Blue). It is filed as cell-based. Conditions: Homo sapiens, PC-3; binned. The protocol: The ability of one or more subject compounds to inhibit tumor cell line proliferation is determined according to standard procedures known in the art. For instance, an in vitro cellular proliferation assay can be performed to measure the metabolic activity of live cells. The assay is performed in a 96 well microtiter plate using Alamar Blue reduction. Human tumor cell lines are obtained from ATCC (e.g., MCF7, U-87 MG, MDA-MB-468, PC-3), grown to confluency in T75 flasks, trypsinized with 0.25% trypsin, washed one time with Tumor Cell Media (DMEM+10% FBS), and plated in 90 ul at 5,000 cells/well in Tumor Cell Media. A compound disclosed herein is diluted in Tumor Cell Media and added in a 10 ul volume. Plates are incubated for 72 hours at 37 C and 5% CO2. A volume of 10 uL of Alamar Blue reagent is added to each well and plates are incubated for 3 hours at 37 C and 5% CO2. Alamar Blue fluoresce is read at 560Ex/590Em, and IC50 values are calculated using GraphPad Prism 5.
(Resazurin is reduced to fluorescent resorufin, in cell work by metabolically active cells.)

Series [7] concerns B6.Sle1z.Sle3z model. Conditions: cited from earlier work.
The conditions of series [8]: PBS pH 7.4, 37° C., over the course of 24 hours; cited from earlier work.
Series [9] concerns p190 transduced leukemic cells. The note with it: about 70 mg/kg twice daily; cited from earlier work.
The conditions of series [10]: control or reference compounds, 5 μM; cited from earlier work.

T4 sequence (O00329 whole entry): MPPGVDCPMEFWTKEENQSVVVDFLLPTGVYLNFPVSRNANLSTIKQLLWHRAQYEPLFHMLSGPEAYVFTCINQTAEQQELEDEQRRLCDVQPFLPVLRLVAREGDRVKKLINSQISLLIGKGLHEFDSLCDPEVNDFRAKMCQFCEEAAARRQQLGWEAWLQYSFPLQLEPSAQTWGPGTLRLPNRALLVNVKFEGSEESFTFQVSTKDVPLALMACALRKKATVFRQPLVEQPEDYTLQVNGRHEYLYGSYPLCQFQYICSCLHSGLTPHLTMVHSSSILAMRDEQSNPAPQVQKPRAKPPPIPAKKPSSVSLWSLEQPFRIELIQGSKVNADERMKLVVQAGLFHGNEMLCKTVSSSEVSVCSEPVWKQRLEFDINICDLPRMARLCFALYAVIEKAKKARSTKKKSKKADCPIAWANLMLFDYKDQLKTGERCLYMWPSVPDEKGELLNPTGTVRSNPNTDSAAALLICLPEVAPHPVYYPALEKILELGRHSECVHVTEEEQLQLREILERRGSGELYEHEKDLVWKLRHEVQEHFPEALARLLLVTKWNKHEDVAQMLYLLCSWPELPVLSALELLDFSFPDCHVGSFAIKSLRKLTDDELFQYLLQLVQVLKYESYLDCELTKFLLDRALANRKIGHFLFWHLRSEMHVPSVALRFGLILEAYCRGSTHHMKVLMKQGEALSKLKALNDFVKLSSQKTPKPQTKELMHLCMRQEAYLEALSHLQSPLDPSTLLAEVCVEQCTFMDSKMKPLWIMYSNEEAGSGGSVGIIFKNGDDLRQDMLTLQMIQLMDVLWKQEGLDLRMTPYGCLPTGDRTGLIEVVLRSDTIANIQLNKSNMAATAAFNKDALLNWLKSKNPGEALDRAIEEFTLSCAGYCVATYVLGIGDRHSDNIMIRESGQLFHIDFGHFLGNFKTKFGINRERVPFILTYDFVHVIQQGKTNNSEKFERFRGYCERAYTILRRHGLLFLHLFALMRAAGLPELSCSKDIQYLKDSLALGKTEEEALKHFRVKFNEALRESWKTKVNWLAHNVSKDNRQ
T4 sequence (P27986 whole entry partner): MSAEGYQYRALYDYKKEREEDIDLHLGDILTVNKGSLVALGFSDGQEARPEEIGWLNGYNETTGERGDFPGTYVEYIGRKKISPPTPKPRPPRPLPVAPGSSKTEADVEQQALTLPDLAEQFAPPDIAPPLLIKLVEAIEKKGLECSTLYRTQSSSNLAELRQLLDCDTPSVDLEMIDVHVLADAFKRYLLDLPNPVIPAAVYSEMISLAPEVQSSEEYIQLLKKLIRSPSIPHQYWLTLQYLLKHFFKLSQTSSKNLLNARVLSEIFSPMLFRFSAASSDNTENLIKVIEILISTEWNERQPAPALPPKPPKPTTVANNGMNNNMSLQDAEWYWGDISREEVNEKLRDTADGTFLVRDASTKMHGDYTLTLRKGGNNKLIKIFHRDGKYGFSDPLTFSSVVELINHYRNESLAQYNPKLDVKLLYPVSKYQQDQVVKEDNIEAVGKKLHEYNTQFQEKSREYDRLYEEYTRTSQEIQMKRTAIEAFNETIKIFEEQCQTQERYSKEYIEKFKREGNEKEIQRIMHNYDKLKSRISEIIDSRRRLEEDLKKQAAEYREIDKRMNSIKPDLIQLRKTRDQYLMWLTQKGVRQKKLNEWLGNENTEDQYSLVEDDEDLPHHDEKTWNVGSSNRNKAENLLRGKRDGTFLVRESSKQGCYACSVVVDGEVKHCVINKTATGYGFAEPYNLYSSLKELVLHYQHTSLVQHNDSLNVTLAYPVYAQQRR
T2 sequence (P42338 whole entry): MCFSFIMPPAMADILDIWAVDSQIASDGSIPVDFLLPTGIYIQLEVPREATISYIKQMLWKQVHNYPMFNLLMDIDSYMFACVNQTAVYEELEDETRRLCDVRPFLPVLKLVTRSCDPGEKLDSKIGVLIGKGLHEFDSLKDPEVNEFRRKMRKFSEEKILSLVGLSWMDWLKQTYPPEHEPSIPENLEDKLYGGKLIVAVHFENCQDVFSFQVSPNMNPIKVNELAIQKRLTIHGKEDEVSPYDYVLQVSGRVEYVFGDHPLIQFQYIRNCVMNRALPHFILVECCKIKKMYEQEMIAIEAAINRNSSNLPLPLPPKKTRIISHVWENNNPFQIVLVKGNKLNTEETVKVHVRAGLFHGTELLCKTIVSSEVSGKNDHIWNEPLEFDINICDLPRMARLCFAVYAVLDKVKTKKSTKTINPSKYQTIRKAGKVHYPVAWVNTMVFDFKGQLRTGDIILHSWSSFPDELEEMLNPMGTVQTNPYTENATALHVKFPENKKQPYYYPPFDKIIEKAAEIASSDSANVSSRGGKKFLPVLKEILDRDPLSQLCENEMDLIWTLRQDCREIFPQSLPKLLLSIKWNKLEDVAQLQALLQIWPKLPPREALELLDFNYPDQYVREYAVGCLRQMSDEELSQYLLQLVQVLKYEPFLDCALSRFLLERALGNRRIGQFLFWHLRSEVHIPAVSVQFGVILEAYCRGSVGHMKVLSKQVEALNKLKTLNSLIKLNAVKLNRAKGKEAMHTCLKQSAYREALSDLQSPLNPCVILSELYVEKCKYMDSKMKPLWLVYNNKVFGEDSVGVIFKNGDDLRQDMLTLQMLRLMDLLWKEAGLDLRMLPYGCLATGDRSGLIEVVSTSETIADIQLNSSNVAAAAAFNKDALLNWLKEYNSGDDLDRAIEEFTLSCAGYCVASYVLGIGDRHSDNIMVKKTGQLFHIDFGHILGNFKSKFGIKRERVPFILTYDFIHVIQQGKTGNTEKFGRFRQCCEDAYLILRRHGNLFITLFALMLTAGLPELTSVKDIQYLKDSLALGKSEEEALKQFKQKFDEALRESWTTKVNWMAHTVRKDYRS
T2 sequence (P27986 2-724 partner): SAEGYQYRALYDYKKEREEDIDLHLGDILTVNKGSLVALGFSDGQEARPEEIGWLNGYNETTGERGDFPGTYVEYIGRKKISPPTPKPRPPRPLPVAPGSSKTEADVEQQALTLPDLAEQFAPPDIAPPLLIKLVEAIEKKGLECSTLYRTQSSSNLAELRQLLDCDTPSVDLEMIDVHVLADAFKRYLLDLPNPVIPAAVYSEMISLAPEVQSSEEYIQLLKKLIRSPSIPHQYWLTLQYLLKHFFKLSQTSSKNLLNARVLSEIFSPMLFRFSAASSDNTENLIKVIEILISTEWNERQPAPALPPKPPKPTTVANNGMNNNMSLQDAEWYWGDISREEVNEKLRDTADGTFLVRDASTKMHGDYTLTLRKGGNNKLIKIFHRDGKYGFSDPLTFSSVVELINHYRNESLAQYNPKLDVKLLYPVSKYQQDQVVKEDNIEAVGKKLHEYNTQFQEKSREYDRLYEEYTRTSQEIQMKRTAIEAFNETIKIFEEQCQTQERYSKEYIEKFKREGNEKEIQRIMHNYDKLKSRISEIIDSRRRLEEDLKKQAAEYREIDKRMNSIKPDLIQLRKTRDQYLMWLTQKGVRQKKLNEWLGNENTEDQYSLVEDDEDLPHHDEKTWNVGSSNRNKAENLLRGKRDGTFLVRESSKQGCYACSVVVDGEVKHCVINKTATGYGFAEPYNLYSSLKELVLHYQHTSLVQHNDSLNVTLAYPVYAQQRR

Take `CC(=O)Nc1nc2ccc(-c3nn(C(C)C)c4ncnc(N)c34)cc2s1` [Compound 1]: the IC50 was at most 500 nM in [1], over 1000 nM in series [2] and at most 50 nM in series [3].
The molecule `CC(C)n1nc(-c2ccc3ncsc3c2)c2c(N)ncnc21` [Compound 2] returned an IC50 in series [3] of over 1000 nM.
Take `CC(C)n1nc(-c2ccc3nc(N)sc3c2)c2c(N)ncnc21` [Compound 3]: the IC50 in series [1] was at most 500 nM; in series [4] it was at most 100 nM; in series [2] it was over 1000 nM; in series [3], at most 50 nM.
Regarding `CC(=O)Nc1nc2ccc(-c3nn(C4CCCC4)c4ncnc(N)c34)cc2s1` [Compound 4], the IC50 in series [2] is over 1000 nM; in [3], at most 50 nM.
Take `CCn1nc(-c2ccc3nc(NC(C)=O)sc3c2)c2c(N)ncnc21` [Compound 5]: the IC50 was at most 100 nM in [1], over 1000 nM in series [2] and at most 50 nM in [3].
In the case of `CC(=O)Nc1nc2ccc(-c3nn(C)c4ncnc(N)c34)cc2s1` [Compound 6], the results for the 50% inhibitory concentration (IC50) in [1] and in series [3] were at most 1000 nM and over 1000 nM, respectively.
On to `CC(C)C(=O)Nc1nc2ccc(-c3nn(C(C)C)c4ncnc(N)c34)cc2s1` [Compound 7], for which the IC50 in [3] was over 1000 nM.
With `CC(C)n1nc(-c2ccc3nc(NC(=O)C4CC4)sc3c2)c2c(N)ncnc21` [Compound 8], the half-maximal inhibitory concentration (IC50) in series [1] is at most 1000 nM; in series [3] it was at most 500 nM.
In the case of `CCC(=O)Nc1nc2ccc(-c3nn(C(C)C)c4ncnc(N)c34)cc2s1` [Compound 9], the IC50 in series [1] and in [3] was at most 500 nM each time.
Regarding `CC(=O)Nc1nc2ccc(-c3nn(C4CCC4)c4ncnc(N)c34)cc2s1` [Compound 10], the IC50 in series [1], in series [4] and in series [3] was at most 100 nM each time.
Take `CNc1nc2ccc(-c3nn(C(C)C)c4ncnc(N)c34)cc2s1` [Compound 11]: the IC50 in series [1] was at most 100 nM; in series [4] it was at most 500 nM; in series [2] it was over 1000 nM; in series [3], at most 50 nM.
As to `CCNc1nc2ccc(-c3nn(C(C)C)c4ncnc(N)c34)cc2s1` [Compound 12], the IC50 is at most 500 nM in series [1], at most 1000 nM in series [4], at most 500 nM in series [5] and at most 500 nM in series [3].
Take `CC(C)n1nc(-c2ccc3nc(NCCN4CCOCC4)sc3c2)c2c(N)ncnc21` [Compound 13]: the IC50 in [1] and in series [3] was over 1000 nM each time.
For `CC(C)n1nc(-c2ccc3nc(N4CCOCC4)sc3c2)c2c(N)ncnc21` [Compound 14], the concentration for half-maximal inhibition (IC50) in [1] and in series [3] was over 1000 nM throughout.
As to `CC(C)n1nc(-c2ccc3nc(NC4CC4)sc3c2)c2c(N)ncnc21` [Compound 15], the figures for the IC50 in series [1], in [2] and in series [3] were over 1000 nM, over 1000 nM and at most 500 nM, respectively.
As to `CC(C)n1nc(-c2ccc3nc(NCCO)sc3c2)c2c(N)ncnc21` [Compound 16], the IC50 in series [1] and in [3] was at most 1000 nM each time.
The molecule `CC(=O)Nc1nc2cc(-c3nn(C(C)C)c4ncnc(N)c34)ccc2s1` [Compound 17] showed an IC50 in [3] of at most 1000 nM.
Consider `CNC(=O)Cn1nc(-c2ccc3nc(NC(C)=O)sc3c2)c2c(N)ncnc21` [Compound 18], for which the IC50 in series [2], in [5] and in series [3] was over 1000 nM in each case.
Consider `CC(=O)Nc1nc2ccc(-c3nn(C4CCOCC4)c4ncnc(N)c34)cc2s1` [Compound 19], for which the IC50 was at most 500 nM in series [1] and at most 50 nM in series [3].
Molecule `CNC(=O)Nc1nc2ccc(-c3nn(C(C)C)c4ncnc(N)c34)cc2s1` [Compound 20] yielded an IC50 in series [3] of at most 50 nM.
`CNC(=O)Nc1nc2ccc(-c3cn(C4CCOCC4)c4ncnc(N)c34)cc2s1` [Compound 21]: the IC50 is at most 1000 nM in [6] and at most 50 nM in [3].
With `CNC(=O)Nc1nc2ccc(-c3cn(C(C)C)c4ncnc(N)c34)cc2s1` [Compound 22], the 50% inhibitory concentration (IC50) was at most 100 nM in series [6] and at most 50 nM in series [3].
`CNC(=O)Nc1nc2ccc(-c3cn(C4CCN(C(C)=O)CC4)c4ncnc(N)c34)cc2s1` [Compound 23]: the IC50 is over 1000 nM in series [6], at most 100 nM in [2] and at most 50 nM in [3].
As to `CO[C@H]1C[C@@H]2CC[C@@H](C)[C@@](O)(O2)C(=O)C(=O)N2CCCC[C@H]2C(=O)O[C@H]([C@H](C)C[C@@H]2CC[C@@H](OCCO)[C@H](OC)C2)CC(=O)[C@H](C)/C=C(\C)[C@@H](O)[C@@H](OC)C(=O)[C@H](C)C[C@H](C)/C=C/C=C/C=C/1C` [RAD001], in [7], the lupus symptoms result is on record as “ameliorate lupus symptoms”.
`O=C(O)CCCc1ccc(N(CCCl)CCCl)cc1` [chlorambucil]: the chemical stability entry in series [8] was “largely hydrolyzed”.
As for `Cc1ccc(NC(=O)c2ccc(CN3CCN(C)CC3)cc2)cc1Nc1nccc(-c2cccnc2)n1` [imatinib], the leukemogenesis result in [9] was “delay but not cure leukemogenesis”.
For the molecule `CC(C)[N+](C)(CCOC(=O)C1c2ccccc2Oc2ccccc21)C(C)C` [propantheline], in series [10], the plasma stability entry is recorded as “intermediate plasma stability”.
`CCCOc1cc(N)ccc1C(=O)OCCN(CC)CC` [propoxycaine]: the plasma stability result in [10] is “low plasma stability”.
